The target in experiment [1] is CDK1/cyclin B (Homo sapiens, UniProt P06493). Conditions: 1 μM; Run 1, Run 2.
Experiment [2] deals with STK38/NDR1 (Homo sapiens, UniProt Q15208). As to the kind of experiment: biochemical. The conditions noted are these: read-out: % enzyme activity, 1 μM; Run 1, Run 2.
For experiment [3], the target named is T1, TAK1 (Homo sapiens, UniProt O43318).
T1 sequence (O43318 1-303 limits assumed): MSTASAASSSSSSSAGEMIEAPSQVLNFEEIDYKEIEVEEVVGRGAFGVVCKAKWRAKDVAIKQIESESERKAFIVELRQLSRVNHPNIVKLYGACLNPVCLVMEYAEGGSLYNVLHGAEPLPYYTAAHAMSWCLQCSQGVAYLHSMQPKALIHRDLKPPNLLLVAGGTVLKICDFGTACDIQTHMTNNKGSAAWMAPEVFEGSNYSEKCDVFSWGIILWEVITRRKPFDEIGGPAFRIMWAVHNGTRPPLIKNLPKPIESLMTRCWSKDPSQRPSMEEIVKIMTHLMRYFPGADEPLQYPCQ
As to the kind of experiment: biochemical. The conditions noted are these: read-out: % enzyme activity, 1 μM; Run 1, Run 2.

The target of experiment [4] is T2, DCAMKL2 (Homo sapiens, UniProt Q8N568).
T2 sequence (Q8N568 1-766): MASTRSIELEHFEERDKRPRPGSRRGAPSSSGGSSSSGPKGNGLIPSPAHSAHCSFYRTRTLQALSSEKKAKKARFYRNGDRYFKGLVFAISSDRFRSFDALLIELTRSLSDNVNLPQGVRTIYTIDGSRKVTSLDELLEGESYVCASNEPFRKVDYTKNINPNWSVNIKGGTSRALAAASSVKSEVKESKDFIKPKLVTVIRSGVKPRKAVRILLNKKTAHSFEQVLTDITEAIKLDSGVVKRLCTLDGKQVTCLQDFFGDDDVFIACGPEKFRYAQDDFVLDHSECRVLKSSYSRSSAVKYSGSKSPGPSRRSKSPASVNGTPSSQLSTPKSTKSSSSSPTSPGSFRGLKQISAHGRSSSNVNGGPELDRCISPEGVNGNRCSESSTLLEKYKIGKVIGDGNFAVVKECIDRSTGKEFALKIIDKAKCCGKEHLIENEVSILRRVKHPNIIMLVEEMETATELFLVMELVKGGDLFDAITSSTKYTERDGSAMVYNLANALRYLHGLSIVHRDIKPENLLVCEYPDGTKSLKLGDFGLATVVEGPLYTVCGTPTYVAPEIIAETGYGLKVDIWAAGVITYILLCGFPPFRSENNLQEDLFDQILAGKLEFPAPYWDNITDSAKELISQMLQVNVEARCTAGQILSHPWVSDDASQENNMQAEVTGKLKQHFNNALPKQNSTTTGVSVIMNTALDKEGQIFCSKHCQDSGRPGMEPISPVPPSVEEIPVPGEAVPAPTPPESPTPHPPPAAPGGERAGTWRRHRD
As to the kind of experiment: biochemical. Conditions: read-out: % enzyme activity, 1 μM; Run 1, Run 2.

For experiment [5], the system named is ALK6/BMPR1B.
Experiment [6] has as its target MAPKAPK2 (Homo sapiens, UniProt P49137). The conditions noted are these: 1 μM; Run 1, Run 2.
Experiment [7] concerns the target IRAK1 (Homo sapiens, UniProt P51617). Conditions: 1 μM; Run 1, Run 2.
Experiment [8] deals with CDK2/cyclin E (Homo sapiens, UniProt P24941). As to the kind of experiment: biochemical. Conditions: read-out: % enzyme activity, 1 μM; Run 1, Run 2.
Experiment [9] concerns the target ERN2/IRE2 (Homo sapiens, UniProt Q76MJ5). Conditions: 1 μM; Run 1, Run 2.
The target in experiment [10] is MLCK2/MYLK2 (Homo sapiens, UniProt Q9H1R3). Description: biochemical. Conditions: read-out: % enzyme activity, 1 μM; Run 1, Run 2.
The target in experiment [11] is CAMK2b (Homo sapiens, UniProt Q13554). As to the kind of experiment: biochemical. The conditions noted are these: read-out: % enzyme activity, 1 μM; Run 1, Run 2.
For experiment [12], the target named is RAF1 (Homo sapiens, UniProt P04049). Description: biochemical. Conditions: read-out: % enzyme activity, 1 μM; Run 1, Run 2.
Experiment [13] addresses PAK3 (Homo sapiens, UniProt O75914). As to the kind of experiment: biochemical. Conditions: read-out: % enzyme activity, 1 μM; Run 1, Run 2.
The target in experiment [14] is PDGFRa (Homo sapiens, UniProt P16234). As to the kind of experiment: biochemical. The conditions noted are these: read-out: % enzyme activity, 1 μM; Run 1, Run 2.
Experiment [15] has as its target T3, CK1a1L (Homo sapiens, UniProt Q8N752).
T3 sequence (Q8N752 1-337): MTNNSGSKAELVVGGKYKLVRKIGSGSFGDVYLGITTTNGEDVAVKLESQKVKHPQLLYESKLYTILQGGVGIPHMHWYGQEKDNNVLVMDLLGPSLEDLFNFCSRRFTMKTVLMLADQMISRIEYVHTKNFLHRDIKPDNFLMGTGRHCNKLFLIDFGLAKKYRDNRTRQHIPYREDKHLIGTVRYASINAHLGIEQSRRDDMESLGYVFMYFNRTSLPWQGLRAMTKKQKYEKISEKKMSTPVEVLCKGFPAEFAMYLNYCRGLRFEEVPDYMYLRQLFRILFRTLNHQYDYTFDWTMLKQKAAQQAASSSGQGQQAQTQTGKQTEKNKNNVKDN
The conditions noted are these: 1 μM; Run 1, Run 2.

For experiment [16], the target named is CDK8/cyclin C (Homo sapiens, UniProt P49336). Conditions: 1 μM; Run 1, Run 2.
In experiment [17] the target is T4, PHKg2 (Homo sapiens, UniProt P15735).
T4 sequence (P15735 1-406): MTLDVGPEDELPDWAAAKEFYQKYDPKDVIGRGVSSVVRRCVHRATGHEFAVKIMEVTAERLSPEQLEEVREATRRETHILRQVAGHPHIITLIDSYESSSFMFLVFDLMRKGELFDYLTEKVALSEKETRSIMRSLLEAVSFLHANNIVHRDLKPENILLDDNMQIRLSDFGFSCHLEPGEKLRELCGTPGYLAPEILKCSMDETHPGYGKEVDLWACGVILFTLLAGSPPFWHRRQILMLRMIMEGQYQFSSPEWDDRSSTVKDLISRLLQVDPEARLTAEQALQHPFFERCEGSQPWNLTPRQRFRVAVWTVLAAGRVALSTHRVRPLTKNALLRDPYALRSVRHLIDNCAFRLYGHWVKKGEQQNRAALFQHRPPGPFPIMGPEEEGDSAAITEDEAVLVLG
The conditions noted are these: 1 μM; Run 1, Run 2.

Values joined by “and” are separate entries in the source; they are usually repeats but may differ in a detail not shown here. Identical values can stand only once.

Sequence of PDGFRa (P16234 24-1089): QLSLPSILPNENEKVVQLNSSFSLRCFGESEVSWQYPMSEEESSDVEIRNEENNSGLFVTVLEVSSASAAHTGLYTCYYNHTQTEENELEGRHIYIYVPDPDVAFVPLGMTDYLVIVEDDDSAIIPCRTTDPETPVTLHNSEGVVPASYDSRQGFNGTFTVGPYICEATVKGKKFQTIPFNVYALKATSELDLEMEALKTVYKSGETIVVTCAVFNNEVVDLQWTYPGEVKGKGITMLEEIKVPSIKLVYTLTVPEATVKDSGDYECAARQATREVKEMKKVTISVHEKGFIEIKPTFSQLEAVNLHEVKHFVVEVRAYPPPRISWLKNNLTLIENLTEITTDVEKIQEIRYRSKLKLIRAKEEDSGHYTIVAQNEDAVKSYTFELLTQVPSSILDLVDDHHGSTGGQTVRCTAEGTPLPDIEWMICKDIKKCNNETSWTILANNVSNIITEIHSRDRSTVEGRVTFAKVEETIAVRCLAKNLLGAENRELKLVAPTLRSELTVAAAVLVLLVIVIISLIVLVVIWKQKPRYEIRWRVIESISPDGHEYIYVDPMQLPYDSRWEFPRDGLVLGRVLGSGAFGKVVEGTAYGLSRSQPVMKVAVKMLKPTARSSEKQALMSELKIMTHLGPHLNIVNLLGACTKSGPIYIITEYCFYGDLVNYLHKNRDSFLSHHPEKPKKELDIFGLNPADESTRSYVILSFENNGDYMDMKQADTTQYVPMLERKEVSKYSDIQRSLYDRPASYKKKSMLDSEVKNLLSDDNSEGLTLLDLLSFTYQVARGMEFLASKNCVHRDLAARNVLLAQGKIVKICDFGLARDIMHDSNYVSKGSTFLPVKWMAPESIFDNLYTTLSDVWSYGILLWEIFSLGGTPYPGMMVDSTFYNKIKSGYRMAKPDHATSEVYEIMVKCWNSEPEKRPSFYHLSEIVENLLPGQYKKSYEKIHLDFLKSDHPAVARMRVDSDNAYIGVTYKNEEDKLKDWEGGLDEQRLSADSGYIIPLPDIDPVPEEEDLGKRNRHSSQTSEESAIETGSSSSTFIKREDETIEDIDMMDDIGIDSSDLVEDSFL
Sequence of IRAK1 (P51617 whole entry): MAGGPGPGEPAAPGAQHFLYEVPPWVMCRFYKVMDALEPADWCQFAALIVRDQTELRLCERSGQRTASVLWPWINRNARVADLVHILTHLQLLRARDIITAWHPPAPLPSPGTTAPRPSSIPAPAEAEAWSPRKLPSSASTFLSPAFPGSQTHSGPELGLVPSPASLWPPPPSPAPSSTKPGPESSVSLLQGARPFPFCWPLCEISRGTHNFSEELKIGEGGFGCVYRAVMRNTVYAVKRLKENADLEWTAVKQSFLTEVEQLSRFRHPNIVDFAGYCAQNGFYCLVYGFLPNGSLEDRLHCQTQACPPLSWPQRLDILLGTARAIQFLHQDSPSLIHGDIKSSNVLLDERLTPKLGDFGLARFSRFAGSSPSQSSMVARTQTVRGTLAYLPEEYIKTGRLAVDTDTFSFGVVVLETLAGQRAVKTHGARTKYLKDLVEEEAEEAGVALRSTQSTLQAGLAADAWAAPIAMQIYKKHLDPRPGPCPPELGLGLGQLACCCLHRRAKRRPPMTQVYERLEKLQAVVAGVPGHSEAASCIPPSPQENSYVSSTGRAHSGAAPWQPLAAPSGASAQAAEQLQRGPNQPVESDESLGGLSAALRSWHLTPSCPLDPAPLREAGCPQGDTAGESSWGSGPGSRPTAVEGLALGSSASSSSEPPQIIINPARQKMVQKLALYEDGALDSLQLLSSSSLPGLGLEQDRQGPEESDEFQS
Sequence of RAF1 (P04049 whole entry): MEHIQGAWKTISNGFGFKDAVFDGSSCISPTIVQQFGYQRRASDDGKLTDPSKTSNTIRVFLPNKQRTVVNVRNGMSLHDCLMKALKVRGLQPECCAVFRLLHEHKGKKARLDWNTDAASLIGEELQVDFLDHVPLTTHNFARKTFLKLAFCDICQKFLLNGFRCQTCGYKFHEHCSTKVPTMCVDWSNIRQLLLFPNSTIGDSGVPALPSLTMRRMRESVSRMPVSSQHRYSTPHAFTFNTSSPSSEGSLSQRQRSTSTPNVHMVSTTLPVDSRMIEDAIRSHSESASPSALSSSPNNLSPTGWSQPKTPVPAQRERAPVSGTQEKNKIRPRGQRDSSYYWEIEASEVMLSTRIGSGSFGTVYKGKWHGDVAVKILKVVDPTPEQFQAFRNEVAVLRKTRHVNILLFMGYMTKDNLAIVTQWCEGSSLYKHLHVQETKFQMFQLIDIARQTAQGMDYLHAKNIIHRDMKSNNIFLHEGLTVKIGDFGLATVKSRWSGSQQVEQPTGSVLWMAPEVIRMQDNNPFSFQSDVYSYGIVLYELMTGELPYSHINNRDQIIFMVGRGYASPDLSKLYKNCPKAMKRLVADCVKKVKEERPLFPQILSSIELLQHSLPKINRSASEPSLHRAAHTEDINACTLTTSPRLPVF
Sequence of MLCK2/MYLK2 (Q9H1R3 whole entry): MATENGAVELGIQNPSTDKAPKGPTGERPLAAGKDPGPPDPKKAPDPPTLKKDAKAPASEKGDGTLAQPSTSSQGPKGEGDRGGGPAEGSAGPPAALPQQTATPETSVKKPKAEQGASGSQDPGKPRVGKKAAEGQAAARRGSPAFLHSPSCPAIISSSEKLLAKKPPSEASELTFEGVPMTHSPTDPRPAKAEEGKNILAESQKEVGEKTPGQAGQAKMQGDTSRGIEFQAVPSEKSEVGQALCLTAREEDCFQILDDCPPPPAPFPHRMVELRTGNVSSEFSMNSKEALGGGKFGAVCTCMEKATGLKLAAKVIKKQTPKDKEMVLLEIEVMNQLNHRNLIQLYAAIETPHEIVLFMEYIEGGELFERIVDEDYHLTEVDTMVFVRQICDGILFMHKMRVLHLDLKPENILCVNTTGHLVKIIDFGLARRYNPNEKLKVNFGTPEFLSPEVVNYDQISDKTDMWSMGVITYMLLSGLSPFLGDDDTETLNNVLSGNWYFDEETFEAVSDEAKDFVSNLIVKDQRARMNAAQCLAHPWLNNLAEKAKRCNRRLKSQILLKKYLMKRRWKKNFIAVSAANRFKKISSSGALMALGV
Sequence of PAK3 (O75914 whole entry): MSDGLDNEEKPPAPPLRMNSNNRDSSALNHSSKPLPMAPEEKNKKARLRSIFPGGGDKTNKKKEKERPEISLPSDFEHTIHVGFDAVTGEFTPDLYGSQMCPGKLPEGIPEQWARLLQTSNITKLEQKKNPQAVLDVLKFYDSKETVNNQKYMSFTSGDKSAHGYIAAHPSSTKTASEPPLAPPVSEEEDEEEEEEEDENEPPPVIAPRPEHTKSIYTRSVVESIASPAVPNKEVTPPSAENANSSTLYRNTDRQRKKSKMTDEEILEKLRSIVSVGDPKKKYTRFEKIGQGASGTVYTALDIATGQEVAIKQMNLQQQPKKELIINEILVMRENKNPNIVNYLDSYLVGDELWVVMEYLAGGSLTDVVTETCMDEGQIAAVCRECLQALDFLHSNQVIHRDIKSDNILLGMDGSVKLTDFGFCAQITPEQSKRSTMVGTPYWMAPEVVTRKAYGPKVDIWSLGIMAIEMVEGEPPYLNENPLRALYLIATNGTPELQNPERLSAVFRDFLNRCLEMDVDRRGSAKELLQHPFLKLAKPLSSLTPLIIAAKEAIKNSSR
Sequence of ERN2/IRE2 (Q76MJ5 35-926): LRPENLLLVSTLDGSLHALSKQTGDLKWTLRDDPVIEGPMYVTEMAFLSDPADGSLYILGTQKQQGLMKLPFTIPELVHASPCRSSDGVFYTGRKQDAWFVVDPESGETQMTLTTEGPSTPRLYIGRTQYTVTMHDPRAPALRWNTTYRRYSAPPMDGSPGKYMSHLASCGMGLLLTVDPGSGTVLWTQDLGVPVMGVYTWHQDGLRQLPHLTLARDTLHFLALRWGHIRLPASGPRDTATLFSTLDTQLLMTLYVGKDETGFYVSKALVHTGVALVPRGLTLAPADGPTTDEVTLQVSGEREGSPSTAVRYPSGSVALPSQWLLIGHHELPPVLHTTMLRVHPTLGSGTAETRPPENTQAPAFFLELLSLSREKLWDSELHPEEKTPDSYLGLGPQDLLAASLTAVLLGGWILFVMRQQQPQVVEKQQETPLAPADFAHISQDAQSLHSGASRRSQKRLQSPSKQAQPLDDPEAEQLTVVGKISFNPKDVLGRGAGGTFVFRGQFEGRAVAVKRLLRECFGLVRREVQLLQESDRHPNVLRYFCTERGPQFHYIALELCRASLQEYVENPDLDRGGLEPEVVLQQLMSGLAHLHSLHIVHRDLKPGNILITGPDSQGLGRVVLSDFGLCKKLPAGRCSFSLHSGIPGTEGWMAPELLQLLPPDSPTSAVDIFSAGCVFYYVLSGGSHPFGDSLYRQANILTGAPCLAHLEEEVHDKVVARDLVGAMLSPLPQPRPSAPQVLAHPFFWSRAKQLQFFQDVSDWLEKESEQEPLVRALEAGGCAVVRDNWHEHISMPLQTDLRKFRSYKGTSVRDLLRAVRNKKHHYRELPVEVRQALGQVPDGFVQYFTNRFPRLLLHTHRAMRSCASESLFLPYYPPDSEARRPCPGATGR
Sequence of STK38/NDR1 (Q15208 whole entry): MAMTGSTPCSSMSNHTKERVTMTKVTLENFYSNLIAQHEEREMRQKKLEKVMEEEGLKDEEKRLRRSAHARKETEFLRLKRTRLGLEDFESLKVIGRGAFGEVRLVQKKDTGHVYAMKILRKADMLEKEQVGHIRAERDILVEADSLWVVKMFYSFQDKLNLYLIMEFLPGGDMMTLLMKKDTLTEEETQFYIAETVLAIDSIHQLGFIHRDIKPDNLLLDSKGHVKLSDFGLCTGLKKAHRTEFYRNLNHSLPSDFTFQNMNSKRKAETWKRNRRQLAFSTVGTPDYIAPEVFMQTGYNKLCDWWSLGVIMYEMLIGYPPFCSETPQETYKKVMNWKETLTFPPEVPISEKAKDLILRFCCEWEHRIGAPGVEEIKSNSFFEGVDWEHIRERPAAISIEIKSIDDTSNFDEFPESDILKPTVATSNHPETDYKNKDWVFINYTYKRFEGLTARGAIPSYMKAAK

Regarding `COc1cc(-c2cncc(-c3ccc(N4CCN(C)CC4)cc3)c2C)cc(F)c1C(N)=O` [Compound 26a, 2-Fluoro-6-methoxy-4-(4-methyl-5-(4-(4-methylpiperazin-1-yl)phenyl)pyridin-3-yl)benzamide], the “% enzyme activity” value in experiment [1] is reported as 92.35%; in [6], 101.22%; in experiment [7] it was 101.36%; in [9], 97.32%; in [15], 97.55%; in experiment [16], 83.64%. The “% enzyme activity” value in experiment [17] is 93.32%. In addition, the remaining activity at 1 µM in experiment [2] amounted to 91.9%; in experiment [3] it was 98.5%; in experiment [4] it was 64.4%; in [8], 105%; in [10] it was 66.8%; in [11] it was 83.9%. Further, the remaining activity at 1 µM in experiment [12] was found to be 78.7%; in experiment [13] it was 89.5%; in experiment [14], 82.9%. Moreover, the % enzyme activity at 1 μM in experiment [5] is 18.2% and 17%.
With `COc1cc(-c2cncc(-c3ccc(N4C[C@@H](C)N(C)[C@@H](C)C4)cc3)c2C)cc(F)c1C(N)=O` [Compound 26c, 2-Fluoro-6-methoxy-4-(4-methyl-5-(4-((3R,5S)-3,4,5-trimethylpiperazin-1-yl)phenyl)pyridin-3-yl)benzamide], the “% enzyme activity” value in [1] was found to be 91.98%; in experiment [6], 93.08%; in experiment [7] it was 97.90%; in experiment [9] it was 96.29%; in experiment [15] it was 99.15%; in experiment [16], 92.05%. Moreover, the “% enzyme activity” value in [17] is listed as 96.43%. Also, the remaining activity at 1 µM in [2] is 96.7%; in experiment [3] it was 99.1%; in [4] it was 84.5%; in [8], 102%; in experiment [10], 84.8%; in experiment [11] it was 92.8%. For the same compound, the results for the remaining activity at 1 µM in experiment [12], in experiment [13] and in experiment [14] were 85.5%, 125% and 81.9%, respectively. Also, the % enzyme activity at 1 μM in [5] is 30.2% and 30.1%.
